PMC3790770 (PLoS ONE, 2013)

Target: T1, maltose binding protein (MBP) (Escherichia coli, UniProt P0AEX9)
T1 construct: resulting in an ampicillin-resistant plasmid that expresses cytoplasmic, full-length MBP; made in house
Test: Titration monitored by tryptophan fluorescence peak wavelength
Conditions: sucrose up to ∼[…] without maltose and ∼0.9 M with maltose, 37 °C, pH 7.2
Experimental: Experiments were performed on a Cary 300 Fluorimeter using 200 nM MBP in 100 mM sodium phosphate buffer (pH 7.2) at 37 °C. […] Crowder titrations were conducted with multiple samples, as addition of crowding agent to concentrations reaching 300 g/L was not feasible in the same sample without large volume and MBP concentration changes.
Data were analyzed using two different models: a two-state binding model (Figure 2A), and a three-state competitive binding model (Scheme 1).
Now, [P] represented the sum of the two ligand-free species, i.e., the free protein P and the protein-crowder complex.

OC[C@H]1O[C@@](CO)(O[C@H]2O[C@H](CO)[C@@H](O)[C@H](O)[C@H]2O)[C@@H](O)[C@@H]1O [sucrose]
binding to MBP (sucrose titration): no apparent 1∶1 binding to MBP
